Results: patent US12552775B2, “Compounds and uses thereof” (Foghorn Therapeutics Inc., priority 2020, dated 2026)

Experiments:
[1] = biological target: T1, HiBit-BRM fusion protein (Homo sapiens, UniProt P51531); assay: HiBiT-BRM cell-based degradation assay (Nano-Glo HiBiT Lytic Detection, 24 h); settings: stable HeLa cell line expressing HiBiT-BRM, top dose 30 μM
T1 construct: expressed in transfected cells
In short: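 HiBiT-tagged BRM levels in a stable HeLa line are measured after one day of compound treatment (up to 30 μM final, duplicate 10-point curves) by adding LgBiT lytic reagent and reading bioluminescence; values are expressed relative to vehicle and a 2 μM degrader control.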

[2] = biological target: T2, HiBit-BRG1 fusion protein (Homo sapiens, UniProt P51532); assay: HiBiT-BRG1 cell-based degradation assay (Nano-Glo HiBiT Lytic Detection, 24 h); settings: stable HeLa cell line expressing HiBit-BRG1 and LgBit, top dose 30 μM, read-out: BRG1 HiBit Degradation Maximum (%)
T2 construct: expressed in transfected cells
T2 sequence (P51532 whole entry, the tested form may be a part): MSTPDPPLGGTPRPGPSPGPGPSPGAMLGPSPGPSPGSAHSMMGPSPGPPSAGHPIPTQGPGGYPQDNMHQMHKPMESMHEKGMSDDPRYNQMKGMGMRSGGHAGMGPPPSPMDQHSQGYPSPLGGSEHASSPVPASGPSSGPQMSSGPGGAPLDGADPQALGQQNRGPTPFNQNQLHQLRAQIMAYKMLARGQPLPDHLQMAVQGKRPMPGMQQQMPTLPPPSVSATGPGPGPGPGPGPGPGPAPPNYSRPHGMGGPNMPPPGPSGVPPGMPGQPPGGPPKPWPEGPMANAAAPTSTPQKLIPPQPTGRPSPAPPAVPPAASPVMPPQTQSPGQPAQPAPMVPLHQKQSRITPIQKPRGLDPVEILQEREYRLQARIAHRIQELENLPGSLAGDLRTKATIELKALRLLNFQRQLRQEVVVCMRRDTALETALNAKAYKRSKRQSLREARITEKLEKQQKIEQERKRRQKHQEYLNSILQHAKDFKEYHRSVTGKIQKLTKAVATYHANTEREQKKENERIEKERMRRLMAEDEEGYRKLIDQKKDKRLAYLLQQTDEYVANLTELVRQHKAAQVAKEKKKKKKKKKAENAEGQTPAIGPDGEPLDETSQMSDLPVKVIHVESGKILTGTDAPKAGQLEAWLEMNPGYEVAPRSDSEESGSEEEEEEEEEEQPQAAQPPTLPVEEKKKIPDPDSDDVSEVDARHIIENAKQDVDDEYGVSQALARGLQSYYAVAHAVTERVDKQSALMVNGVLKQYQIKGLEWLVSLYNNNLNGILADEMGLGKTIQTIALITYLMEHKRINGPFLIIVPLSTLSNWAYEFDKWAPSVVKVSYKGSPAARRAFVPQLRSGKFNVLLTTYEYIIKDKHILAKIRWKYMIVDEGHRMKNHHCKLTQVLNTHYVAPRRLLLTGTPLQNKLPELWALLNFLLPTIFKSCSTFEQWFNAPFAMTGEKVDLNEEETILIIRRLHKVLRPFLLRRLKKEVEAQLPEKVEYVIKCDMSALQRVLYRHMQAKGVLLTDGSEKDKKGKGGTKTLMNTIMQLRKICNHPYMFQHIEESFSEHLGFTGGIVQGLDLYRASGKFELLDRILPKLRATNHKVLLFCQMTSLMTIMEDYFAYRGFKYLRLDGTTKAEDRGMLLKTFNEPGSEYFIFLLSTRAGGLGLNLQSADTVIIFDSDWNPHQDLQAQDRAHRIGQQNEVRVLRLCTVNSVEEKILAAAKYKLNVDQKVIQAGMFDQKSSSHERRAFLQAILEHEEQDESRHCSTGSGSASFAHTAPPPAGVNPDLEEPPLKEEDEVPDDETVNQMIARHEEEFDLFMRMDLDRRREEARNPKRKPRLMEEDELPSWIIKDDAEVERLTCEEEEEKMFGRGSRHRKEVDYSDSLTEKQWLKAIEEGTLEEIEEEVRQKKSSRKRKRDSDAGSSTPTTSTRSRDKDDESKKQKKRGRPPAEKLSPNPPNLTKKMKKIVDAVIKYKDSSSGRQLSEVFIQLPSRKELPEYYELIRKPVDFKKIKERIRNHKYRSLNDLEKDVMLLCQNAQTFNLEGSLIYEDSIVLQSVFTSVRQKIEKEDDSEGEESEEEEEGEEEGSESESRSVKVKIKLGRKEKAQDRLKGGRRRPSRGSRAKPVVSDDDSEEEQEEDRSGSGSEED
In short: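 HeLa cells stably expressing HiBiT-BRG1 plus LgBiT were treated with 10-point 3-fold compound dilutions (top 30 μM final) for 24 h. Lytic Nano-Glo HiBiT luminescence was read. % degradation was normalised between DMSO (high control) and 2 μM of a reference BRM/BRG1 degrader (low control).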

T1 sequence (P51531 whole entry, the tested form may be a part): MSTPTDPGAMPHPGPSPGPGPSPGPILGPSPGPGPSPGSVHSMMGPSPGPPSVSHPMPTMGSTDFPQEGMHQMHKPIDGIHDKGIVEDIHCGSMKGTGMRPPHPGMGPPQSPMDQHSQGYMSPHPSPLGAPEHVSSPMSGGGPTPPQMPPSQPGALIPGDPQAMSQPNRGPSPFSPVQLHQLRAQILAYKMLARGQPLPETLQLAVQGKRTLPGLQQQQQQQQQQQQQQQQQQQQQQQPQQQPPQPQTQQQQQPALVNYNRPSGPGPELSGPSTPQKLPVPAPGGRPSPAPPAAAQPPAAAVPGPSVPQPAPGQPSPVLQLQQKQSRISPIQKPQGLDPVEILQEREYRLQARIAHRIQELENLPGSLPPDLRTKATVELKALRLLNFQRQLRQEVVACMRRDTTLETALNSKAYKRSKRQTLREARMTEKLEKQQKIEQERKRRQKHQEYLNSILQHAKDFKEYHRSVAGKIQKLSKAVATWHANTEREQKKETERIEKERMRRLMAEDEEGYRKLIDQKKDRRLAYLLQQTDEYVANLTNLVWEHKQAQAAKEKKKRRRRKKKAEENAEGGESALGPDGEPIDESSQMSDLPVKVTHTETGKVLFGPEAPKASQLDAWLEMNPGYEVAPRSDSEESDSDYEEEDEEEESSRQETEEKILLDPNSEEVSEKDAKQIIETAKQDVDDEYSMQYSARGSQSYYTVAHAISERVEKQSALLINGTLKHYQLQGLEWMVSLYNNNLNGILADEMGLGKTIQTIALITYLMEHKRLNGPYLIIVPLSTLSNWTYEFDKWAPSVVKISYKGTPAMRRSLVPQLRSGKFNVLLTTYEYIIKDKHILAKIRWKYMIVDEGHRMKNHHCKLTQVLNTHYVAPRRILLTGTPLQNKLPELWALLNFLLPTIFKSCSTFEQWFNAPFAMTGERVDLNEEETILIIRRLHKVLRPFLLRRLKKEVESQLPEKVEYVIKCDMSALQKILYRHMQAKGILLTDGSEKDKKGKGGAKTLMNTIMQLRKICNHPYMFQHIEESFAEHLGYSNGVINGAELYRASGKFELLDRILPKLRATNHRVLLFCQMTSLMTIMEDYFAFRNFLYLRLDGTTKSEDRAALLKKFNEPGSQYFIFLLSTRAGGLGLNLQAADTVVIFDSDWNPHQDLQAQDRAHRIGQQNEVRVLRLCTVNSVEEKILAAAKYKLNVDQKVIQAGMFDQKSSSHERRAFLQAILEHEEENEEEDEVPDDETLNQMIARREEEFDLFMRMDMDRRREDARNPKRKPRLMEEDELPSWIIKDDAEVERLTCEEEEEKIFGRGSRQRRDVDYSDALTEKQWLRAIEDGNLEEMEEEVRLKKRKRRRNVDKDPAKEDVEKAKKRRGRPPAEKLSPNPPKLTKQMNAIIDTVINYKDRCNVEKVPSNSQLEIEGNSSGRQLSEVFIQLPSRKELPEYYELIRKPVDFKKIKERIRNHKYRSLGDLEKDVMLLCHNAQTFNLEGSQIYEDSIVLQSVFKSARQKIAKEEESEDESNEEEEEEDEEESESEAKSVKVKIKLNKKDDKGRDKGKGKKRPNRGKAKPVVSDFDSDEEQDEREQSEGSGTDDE

SMILES | Dmax [2] [%] | BRM HiBit Degradation Maximum (%) [1]
Nc1nnc(-c2ccccc2O)cc1OCC12CC(C(=O)NC3CCN(CCOc4ccc5c(c4)C(=O)N(C4CCC(=O)NC4=O)C5=O)CC3)(C1)C2 (centres unmarked) [Compound 80, 3-(((3-amino-6-(2-hydroxyphenyl)pyridazin-4-yl)oxy)methyl)-N-(1-(2-((2-(2,6-dioxopiperidin-3-yl)-1,3-dioxoisoindolin-5-yl)oxy)ethyl)piperidin-4-yl)bicyclo[1.1.1]pentane-1-carboxamide] | < 50 | C (“C” indicates maximum degradation < 50%)
Cc1nc2cccc(NCCCCCCCCNC(=O)C34CC(COc5cc(-c6ccccc6O)nnc5N)(C3)C4)c2c(=O)n1C1CCC(=O)NC1=O (centres unmarked) [Compound 59, 3-(((3-amino-6-(2-hydroxyphenyl)pyridazin-4-yl)oxy)methyl)-N-(8-((3-(2,6-dioxopiperidin-3-yl)-2-methyl-4-oxo-3,4-dihydroquinazolin-5-yl)amino)octyl)bicyclo[1.1.1]pentane-1-carboxamide] | < 50 | C (“C” indicates maximum degradation < 50%)
Nc1nnc(-c2ccccc2O)cc1OCC12CC(C(=O)NCCOCc3cccc(COCCOc4ccc5c(c4)C(=O)N(C4CCC(=O)NC4=O)C5=O)c3)(C1)C2 (centres unmarked) [Compound 84, 3-(((3-amino-6-(2-hydroxyphenyl)pyridazin-4-yl)oxy)methyl)-N-(2-((3-((2-((2-(2,6-dioxopiperidin-3-yl)-1,3-dioxoisoindolin-5-yl)oxy)ethoxy)methyl)benzyl)oxy)ethyl)bicyclo[1.1.1]pentane-1-carboxamide; formic acid] | < 50 | C (“C” indicates maximum degradation < 50%)
Nc1nnc(-c2ccccc2O)cc1OCC12CC(C(=O)N3CC(CCOc4cccc5c4C(=O)N(C4CCC(=O)NC4=O)C5=O)C3)(C1)C2 (centres unmarked) [Compound 78, 4-(2-(1-(3-(((3-amino-6-(2-hydroxyphenyl)pyridazin-4-yl)oxy)methyl)bicyclo[1.1.1]pentane-1-carbonyl)azetidin-3-yl)ethoxy)-2-(2,6-dioxopiperidin-3-yl)isoindoline-1,3-dione] | < 50 | C (“C” indicates maximum degradation < 50%)
Nc1nnc(-c2ccccc2O)cc1OCC12CC(CNC(=O)CCOCCOCCNc3cccc4c3C(=O)N(C3CCC(=O)NC3=O)C4=O)(C1)C2 (centres unmarked) [Compound 11, N-[[3-([[3-amino-6-(2-hydroxyphenyl)pyridazin-4-yl]oxy]methyl)bicyclo[1.1.1]pentan-1-yl]methyl]-3-[2-(2-[[2-(2,6-dioxopiperidin-3-yl)-1,3-dioxoisoindol-4-yl]amino]ethoxy)ethoxy]propanamide] | < 50 | C (“C” indicates maximum degradation < 50%)

Further lines, with some results ahead:

Dmax [2] [%] | SMILES | BRM HiBit Degradation Maximum (%) [1]
< 50 | Nc1nnc(-c2ccccc2O)cc1OCCC12CC(NC(=O)CCOCCOCCNc3ccc4c(c3)C(=O)N(C3CCC(=O)NC3=O)C4=O)(C1)C2 (centres unmarked) [Compound 22, N-[3-(2-[[3-amino-6-(2-hydroxyphenyl)pyridazin-4-yl]oxy]ethyl)bicyclo[1.1.1]pentan-1-yl]-3-[2-(2-[[2-(2,6-dioxopiperidin-3-yl)-1,3-dioxoisoindol-5-yl]amino]ethoxy)ethoxy]propanamide] | C (“C” indicates maximum degradation < 50%)
< 50 | CN(CCNC(=O)COc1cccc2c1C(=O)N(C1CCC(=O)NC1=O)C2=O)CCNC(=O)C12CC(COc3cc(-c4ccccc4O)nnc3N)(C1)C2 (centres unmarked) [Compound 75, 3-(((3-amino-6-(2-hydroxyphenyl)pyridazin-4-yl)oxy)methyl)-N-(2-((2-(2-((2-(2,6-dioxopiperidin-3-yl)-1,3-dioxoisoindolin-4-yl)oxy)acetamido)ethyl)(methyl)amino)ethyl)bicyclo[1.1.1]pentane-1-carboxamide] | C (“C” indicates maximum degradation < 50%)
